According to the supplement of paper PMC10883282:
± gives the standard deviation of the averaged measurements.

System: RD-ES
Assay: relative viability vs DMSO control (72 h) (fraction); higher = more viable cells
Summary of the method: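 Sarcoma cell lines were seeded in 384-well plates at densities set to reach 80–90% confluence. After 24 h, 2.5 µl of serially diluted compound was added (source plates 10 mM to 0.0002 mM), and plates were held 72 h at 37 °C, 5% CO2, with 0.1% DMSO vehicle and a 5 µM positive control. Relative viability came from ATPLite readings as percent growth, averaged over up to triplicate wells. Data were rescaled so full viability equals 1 and none equals 0.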

| SMILES | relative viability (0.00017 µM) | relative viability (0.00051 µM) | relative viability (0.00152 µM) | relative viability (0.00457 µM) | relative viability (0.01372 µM) | relative viability (0.04115 µM) | relative viability (0.1235 µM) | relative viability (0.3704 µM) | relative viability (1.111 µM) | relative viability (3.333 µM) | relative viability (10 µM) |
| --- | --- | --- | --- | --- | --- | --- | --- | --- | --- | --- | --- |
| COc1cc2/c(=N/c3ccc(Br)cc3F)nc[nH]c2cc1OCC1CCN(C)CC1 [Vandetanib] | 0.944 ± 0.034 | 0.949 ± 0.031 | 0.957 ± 0.01 | 0.939 ± 0.047 | 0.927 ± 0.025 | 0.94 ± 0.041 | 0.944 ± 0.053 | 0.922 ± 0.056 | 0.804 ± 0.054 | 0.648 ± 0.029 | 0.0224 ± 0.01 |
| CCCS(=O)(=O)Nc1ccc(F)c(C(=O)c2c[nH]c3ncc(-c4ccc(Cl)cc4)cc23)c1F [Vemurafenib] | 0.978 ± 0.032 | 0.983 ± 0.024 | 0.975 ± 0.044 | 0.995 ± 0.051 | 0.982 ± 0.039 | 0.994 ± 0.05 | 0.99 ± 0.041 | 0.991 ± 0.047 | 0.984 ± 0.039 | 0.967 ± 0.042 | 0.7 ± 0.27 |
| C[C@@H](c1ccc2nccn2c1)n1nnc2ncc(-c3cnn(C)c3)nc21 [Volitinib] | 0.975 ± 0.017 | 1.01 ± 0.019 | 0.98 ± 0.043 | 0.998 ± 0.022 | 1 ± 0.018 | 1 ± 0.013 | 1.02 ± 0.017 | 1.03 ± 0.025 | 0.989 ± 0.062 | 0.995 ± 0.064 | 0.972 ± 0.081 |
| C=CC(=O)N1CCC([C@@H]2CCNc3c(C(N)=O)c(-c4ccc(Oc5ccccc5)cc4)nn32)CC1 [Zanubrutinib] | 0.953 ± 0.033 | 0.956 ± 0.013 | 0.978 ± 0.025 | 0.985 ± 0.025 | 0.978 ± 0.023 | 0.943 ± 0.044 | 0.921 ± 0.027 | 0.942 ± 0.046 | 0.887 ± 0.053 | 0.888 ± 0.07 | 0.904 ± 0.049 |
